This is an account of results in patent US20260109709A1 (MIRATI THERAPEUTICS, INC., priority 2021, published 2026).

Counter-ions that a name gives are not always drawn. Like-named read-outs stand apart in the source and are kept apart here. Some results are limits rather than exact numbers.

The target of this experiment is T1, PRMT5/MEP50 complex (Homo sapiens, UniProt O14744).
T1 construct: purchased Reaction Biology Corporation
Description: PRMT5:MEP50 FlashPlate Assay (histone H4 peptide methylation). The format is biochemical. To be noted: 40 nM H4 (1-15) peptide, 1 μM SAM. The method, then:
The PRMT5 inhibitory activity of compounds of the present invention was determined using a PRMT5: MEP50 FlashPlate Assay and a PRMT5: MEP50 HotSpot Assay (Reaction Biology Corporation).
The assay uses purified human, PRMT5 enzyme to convert S-adenosyl-L-[methyl-3H]methionine plus histone H4 L-arginine to S-adenosyl-L-homocysteine plus histone H4 [methyl-3H]-L-arginine. The assay was carried out using Streptavidin-coated FlashPlates (Perkin Elmer), which contained a scintillant embedded in the plastic of the plate. The histone H4 peptide substrate was conjugated with biotin, which binds to the streptavidin-coated well of the plate, placing the H4 peptide in close proximity to the side well and the scintillant. The transfer of the tritiated methyl group from S-adenosyl-L-[methyl-3H]methionine to the bound histone H4 peptide generated a radiolabeled histone H4, which was quantitated by measuring in a scintillation counter to determine the activity of PRMT5 enzyme in the presence and absence of compound. […] Briefly, compounds of the present invention were solubilized in 100% DMSO at a highest concentration of 10 mM. […] Control samples lacking compound, PRMT5/MEP50 complex or various reaction components also were prepared and processed in parallel with compound test samples. SAH was used as a positive control for assay validation. To measure PRMT5 inhibitory activity, 3 nM PRMT5/MEP50 complex (Reaction Biology Corporation) was preincubated with test compound in assay buffer containing 40 nM histone H4 peptide (amino acids 1-15)-Biotin conjugate for 20 min at room temperature. The enzymatic reaction was initiated by adding 1 μM tritiated S-adenosyl methionine (final concentration) and the reaction is allowed to proceed for 20 min. The reaction was stopped and the amount of bound, tritiated H4 peptide in each sample was determined using a scintillation counter.

T1 sequence (O14744 2-637 limits assumed): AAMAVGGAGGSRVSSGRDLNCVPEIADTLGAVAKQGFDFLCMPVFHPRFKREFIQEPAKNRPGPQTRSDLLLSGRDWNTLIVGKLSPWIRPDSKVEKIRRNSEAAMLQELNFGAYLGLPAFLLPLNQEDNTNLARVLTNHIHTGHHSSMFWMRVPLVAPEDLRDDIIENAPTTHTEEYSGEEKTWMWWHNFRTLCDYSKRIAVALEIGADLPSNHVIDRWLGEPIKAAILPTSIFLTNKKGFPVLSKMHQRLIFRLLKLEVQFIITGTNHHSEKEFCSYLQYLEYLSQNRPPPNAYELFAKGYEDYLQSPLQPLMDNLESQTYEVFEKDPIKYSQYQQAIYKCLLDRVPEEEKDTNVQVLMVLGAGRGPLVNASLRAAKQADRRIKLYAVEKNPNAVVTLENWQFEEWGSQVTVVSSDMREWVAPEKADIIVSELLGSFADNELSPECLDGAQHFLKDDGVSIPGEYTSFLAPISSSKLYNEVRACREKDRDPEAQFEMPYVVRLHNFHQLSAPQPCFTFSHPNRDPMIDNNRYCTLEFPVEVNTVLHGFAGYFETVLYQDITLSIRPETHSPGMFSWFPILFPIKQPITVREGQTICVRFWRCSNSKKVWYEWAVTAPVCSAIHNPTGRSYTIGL
T1 sequence (Q9BQA1 2-342 partner limits assumed): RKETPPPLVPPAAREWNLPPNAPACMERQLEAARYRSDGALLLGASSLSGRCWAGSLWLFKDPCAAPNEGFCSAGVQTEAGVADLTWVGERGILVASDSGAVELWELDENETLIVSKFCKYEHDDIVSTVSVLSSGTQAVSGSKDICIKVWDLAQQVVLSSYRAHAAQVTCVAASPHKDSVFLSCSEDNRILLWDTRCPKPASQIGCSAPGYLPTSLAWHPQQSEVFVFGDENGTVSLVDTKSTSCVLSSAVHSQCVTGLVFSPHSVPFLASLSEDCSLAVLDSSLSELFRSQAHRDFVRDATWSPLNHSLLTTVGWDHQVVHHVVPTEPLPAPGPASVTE

Turning to `CCO[C@@H]1COC[C@H]1Nc1cccc2c1nc(N)n2C` (racemic) [Example 1-7, rac-N4-((3R,4S)-4-ethoxytetrahydrofuran-3-yl)-1-methyl-1H-benzo[d]imidazole-2,4-diamine], the IC50 (IC50 + 2 μM MTA, plus 2 μM MTA) was over 300 µM.
`Cn1c(N)nc2c(NCCN3CC4CC4C3)cccc21` (stereo not drawn) [Example 1-8, N4-(2-(3-azabicyclo[3.1.0]hexan-3-yl)ethyl)-1-methyl-1H-benzo[d]imidazole-2,4-diamine]: the IC50 (IC50 + 2 μM MTA, plus 2 μM MTA) is over 300 µM.
As to `Cn1c(N)nc2c(Nc3cnn(CCN4CCCC4=O)c3)cccc21` [Example 1-13, 1-(2-(4-((2-amino-1-methyl-1H-benzo[d]imidazol-4-yl)amino)-1H-pyrazol-1-yl)ethyl)pyrrolidin-2-one], the 50% inhibitory concentration (IC50) (IC50 + 2 μM MTA, plus 2 μM MTA) is over 300 µM.
Consider `Cn1c(N)nc2c(Nc3ccncc3)cccc21` [Example 1-31, 1-methyl-N4-(pyridin-4-yl)-1H-benzo[d]imidazole-2,4-diamine], for which the IC50 (IC50 + 2 μM MTA, plus 2 μM MTA) was over 300 µM.
`Cn1c(N)nc2c(Nc3ccncn3)cccc21` [Example 1-32, 1-methyl-N4-(pyrimidin-4-yl)-1H-benzo[d]imidazole-2,4-diamine]: the IC50 (IC50 + 2 μM MTA, plus 2 μM MTA) was over 300 µM.
With `Cc1nnc(CN(C)c2cccc3c2nc(N)n3C)n1C` [Example 1-50, N4-((4,5-dimethyl-4H-1,2,4-triazol-3-yl)methyl)-N4,1-dimethyl-1H-benzo[d]imidazole-2,4-diamine], under “IC50 + 2 μM MTA, plus 2 μM MTA”, the IC50 is over 300 µM.
For `CN(Cc1nnc2n1CCOC2)c1cccc2c1nc(N)n2C` [Example 1-51, N4-((5,6-dihydro-8H-[1,2,4]triazolo[3,4-c][1,4]oxazin-3-yl)methyl)-N4,1-dimethyl-1H-benzo[d]imidazole-2,4-diamine], the IC50 (IC50 + 2 μM MTA, plus 2 μM MTA) is over 300 µM.
With `Cn1c(N)nc2cc(-c3cncnc3)ccc21` [Example 1-52, 1-methyl-5-(pyrimidin-5-yl)-1H-benzo[d]imidazol-2-amine], for the setting “IC50 + 2 μM MTA, plus 2 μM MTA”, the IC50 is over 300 µM.
As for `Cn1c(N)nc2cc(-c3cccnc3)ccc21` [Example 1-54, 1-methyl-5-(pyridin-3-yl)-1H-benzo[d]imidazol-2-amine], the IC50 (IC50 + 2 μM MTA, plus 2 μM MTA) is over 300 µM.
`Cc1ncccc1-c1ccc2c(c1)nc(N)n2C` [Example 1-58, 1-methyl-5-(2-methylpyridin-3-yl)-1H-benzo[d]imidazol-2-amine]: the IC50 (IC50 + 2 μM MTA, plus 2 μM MTA) is over 300 µM.
Turning to `Cn1c(N)nc2cc(-c3cn[nH]c3)ccc21` [Example 1-60, 1-methyl-5-(1H-pyrazol-4-yl)-1H-benzo[d]imidazol-2-amine], where the note is “IC50 + 2 μM MTA, plus 2 μM MTA”, the IC50 is over 300 µM.
Still for that read-out and setting: under `Cn1c(N)nc2cc(-c3occc3C#N)ccc21` [Example 1-61, 2-(2-amino-1-methyl-1H-benzo[d]imidazol-5-yl)furan-3-carbonitrile] stands 34.5 µM.
As to `Cn1c(N)nc2c(-c3cncnc3)cccc21` [Example 1-62, 1-methyl-4-(pyrimidin-5-yl)-1H-benzo[d]imidazol-2-amine], the IC50 (IC50 + 2 μM MTA, plus 2 μM MTA) was over 300 µM.
For the molecule `Cn1c(N)nc2c(-c3cccnc3)cccc21` [Example 1-64, 1-methyl-4-(pyridin-3-yl)-1H-benzo[d]imidazol-2-amine], under “IC50 + 2 μM MTA, plus 2 μM MTA”, the IC50 is over 300 µM.
`Cn1c(N)nc2c(-c3ccccc3)cccc21` [Example 1-65, 1-methyl-4-phenyl-1H-benzo[d]imidazol-2-amine]: the IC50 (IC50 + 2 μM MTA, plus 2 μM MTA) is over 300 µM.
With `Cn1c(N)nc2c(-c3ccncc3)cccc21` [Example 1-66, 1-methyl-4-(pyridin-4-yl)-1H-benzo[d]imidazol-2-amine], the half-maximal inhibitory concentration (IC50) (IC50 + 2 μM MTA, plus 2 μM MTA) is over 300 µM.
As to `Cn1nccc1-c1cccc2c1nc(N)n2C` [Example 1-67, 1-methyl-4-(1-methyl-1H-pyrazol-5-yl)-1H-benzo[d]imidazol-2-amine], the IC50 (IC50 + 2 μM MTA, plus 2 μM MTA) is over 300 µM.
With `Cn1ccc(-c2cccc3c2nc(N)n3C)n1` [Example 1-68, 1-methyl-4-(1-methyl-1H-pyrazol-3-yl)-1H-benzo[d]imidazol-2-amine], the IC50 (IC50 + 2 μM MTA, plus 2 μM MTA) is over 300 µM.
Still for that read-out and setting: under `Cc1cc(-c2cccc3c2nc(N)n3C)cnc1O` [Example 1-70, 5-(2-amino-1-methyl-1H-benzo[d]imidazol-4-yl)-3-methylpyridin-2-ol] stands over 300 µM; under `Cn1cc(-c2cccc3c2nc(N)n3C)ccc1=O` [Example 1-71, 5-(2-amino-1-methyl-1H-benzo[d]imidazol-4-yl)-1-methylpyridin-2(1H)-one], over 300 µM; under `Cn1c(N)nc2c(-c3ccnnc3)cccc21` [Example 1-72], over 300 µM.
On to `Cn1c(N)nc2cc(-c3ccnnc3)ccc21` [Example 1-73, 1-methyl-5-(pyridazin-4-yl)-1H-benzo[d]imidazol-2-amine], for which the IC50 (IC50 + 2 μM MTA, plus 2 μM MTA) was over 300 µM.
Still for that read-out and setting: under `Cc1nn(C(C)C)cc1Nc1cccc2c1nc(N)n2C` [Example 1-74, N4-(1-isopropyl-3-methyl-1H-pyrazol-4-yl)-1-methyl-1H-benzo[d]imidazole-2,4-diamine] stands over 300 µM; under `Cn1c(N)nc2c(NCc3cn4cccc(F)c4n3)cccc21` [Example 1-75, N4-((8-fluoroimidazo[1,2-a]pyridin-2-yl)methyl)-1-methyl-1H-benzo[d]imidazole-2,4-diamine], 180 µM.
The same measure, in the same setting: for `Cn1c(N)nc2c(Nc3cnccn3)cccc21` [Example 1-76, 1-methyl-N4-(pyrazin-2-yl)-1H-benzo[d]imidazole-2,4-diamine] the value was over 300 µM; for `Cn1c(N)nc2c(Nc3ncccn3)cccc21` [Example 1-78, 1-methyl-N4-(pyrimidin-2-yl)-1H-benzo[d]imidazole-2,4-diamine], over 300 µM; for `Cn1c(N)nc2cc(Nc3cnccn3)ccc21` [Example 1-82, 1-methyl-N5-(pyrazin-2-yl)-1H-benzo[d]imidazole-2,5-diamine], 50.7 µM.
In the case of `Cn1cc(-c2ccc(Cl)c3c2nc(N)n3C)cn1` [Example 2-1, 7-chloro-1-methyl-4-(1-methylpyrazol-4-yl)benzimidazol-2-amine hydrochloride], the half-inhibitory concentration (IC50) reads like this: (IC50 + 2 μM MTA, plus 2 μM MTA) over 300 µM; (absence of MTA, read-out: IC50) over 300 µM.
For the molecule `CN1C(=O)CCC1c1ccc(Cl)c2c1nc(N)n2C` (stereo not drawn) [Example 2-5, 5-(2-amino-7-chloro-1-methyl-benzimidazol-4-yl)-1-methyl-pyrrolidin-2-one hydrochloride], the IC50 reads like this: (IC50 + 2 μM MTA, plus 2 μM MTA) over 300 µM; (absence of MTA, read-out: IC50) over 300 µM.
For the molecule `CN1CCOC(Cc2ccc(Cl)c3c2nc(N)n3C)C1` (stereo not drawn) [Example 2-6, 7-chloro-1-methyl-4-[(4-methylmorpholin-2-yl)methyl]benzimidazol-2-amine], the IC50 (IC50 + 2 μM MTA, plus 2 μM MTA) is over 300 µM and the IC50 (absence of MTA, read-out: IC50) is over 300 µM.
In the case of `Cn1c(N)nc2c(-c3cnoc3)ccc(Cl)c21` [Example 2-7, 7-chloro-4-isoxazol-4-yl-1-methyl-benzimidazol-2-amine], the IC50 was over 300 µM (IC50 + 2 μM MTA, plus 2 μM MTA) and over 300 µM (absence of MTA, read-out: IC50).
In the case of `Cn1c(N)nc2cc(Cc3ccncc3)cc(C#N)c21` [Example 3-4, 2-amino-3-methyl-6-(4-pyridylmethyl)benzimidazole-4-carbonitrile], the IC50 by setting is: (IC50 + 2 μM MTA, plus 2 μM MTA) over 300 µM; (absence of MTA, read-out: IC50) over 300 µM.
With `Cn1c(N)nc2cc(C(F)(F)c3cccnc3)cc(C#N)c21` [Example 3-17, 2-amino-6-[difluoro (3-pyridyl)methyl]-3-methyl-benzimidazole-4-carbonitrile], the IC50 is over 300 µM (IC50 + 2 μM MTA, plus 2 μM MTA) and over 300 µM (absence of MTA, read-out: IC50).
As to `Cn1nnc(CNc2cc(C#N)c3c(c2)nc(N)n3C)c1C(F)F` [Example 3-23, 2-amino-5-(((5-(difluoromethyl)-1-methyl-1H-1,2,3-triazol-4-yl)methyl)amino)-1-methyl-1H-benzo[d]imidazole-7-carbonitrile], the IC50 turned out to be 0.43 µM (IC50 + 2 μM MTA, plus 2 μM MTA) and 155 µM (absence of MTA, read-out: IC50).
In the case of `CCn1cnnc1CNc1cc(C#N)c2c(c1)nc(N)n2C` [Example 3-24, 2-amino-5-(((4-ethyl-4H-1,2,4-triazol-3-yl)methyl)amino)-1-methyl-1H-benzo[d]imidazole-7-carbonitrile], the IC50 is, setting by setting: (IC50 + 2 μM MTA, plus 2 μM MTA) 0.73 µM; (absence of MTA, read-out: IC50) 280 µM.
Regarding `CC(=O)N(Cc1cc(C#N)c2c(c1)nc(N)n2C)c1ccc2ccccc2c1C#N` [Example 3-25, N-[(2-amino-7-cyano-1-methyl-benzimidazol-5-yl)methyl]-N-(1-cyano-2-naphthyl) acetamide], the IC50 by setting is: (IC50 + 2 μM MTA, plus 2 μM MTA) 0.006 µM; (absence of MTA, read-out: IC50) 2.48 µM.
On to `Cn1c(N)nc2cc(Cc3ccccn3)cc(C(F)F)c21` [Example 4-2, 7-(difluoromethyl)-1-methyl-5-(2-pyridylmethyl)benzimidazol-2-amine], for which the IC50 is 122 µM (IC50 + 2 μM MTA, plus 2 μM MTA) and over 300 µM (absence of MTA, read-out: IC50).
With `CCn1c(N)nc2ncccc21` [Example 5-1, 1-ethyl-1H-imidazo[4,5-b]pyridin-2-amine hydrochloride], the IC50 reads like this: (IC50 + 2 μM MTA, plus 2 μM MTA) over 300 µM; (absence of MTA, read-out: IC50) over 300 µM.
Turning to `Cn1c(N)nc2cc(Oc3cccnc3)cnc21` [Example 5-3, 3-methyl-6-(3-pyridyloxy) imidazo[4,5-b]pyridin-2-amine], the IC50 (IC50 + 2 μM MTA, plus 2 μM MTA) was over 300 µM and the IC50 (absence of MTA, read-out: IC50) is over 300 µM.

One may read the IC50 as the point on the concentration scale where inhibition reaches its midpoint.
